The source of these data is patent publication US20040253665A1, “Novel peptide-producing enzyme, microbe producing the enzyme and method for dipeptide synthesis using them” (AJINOMOTO CO., INC., priority 2002, published 2004).

Experiment [1] can be described thus: Comparison of ability to catalyze peptide production with known enzymes. The class given is biochemical. To be noted: for L-Ala-L-Gln production rate: 100 mM L-alanine methyl ester, 200 mM L-glutamine, borate buffer pH 9.0, 25° C., enzyme amount as in Table 14; for Ratio of L-Ala-L-Gln production rate per enzyme unit weight: enzyme of present invention = 100.0.
Procedure: The peptide formation ability of the present enzyme was compared with that of known enzymes. […] The enzyme uniformly purified in Example 3 was used for the source of the enzyme of the present invention. The reaction was carried out by adding enzyme to 100 μl of borate buffer (pH 9.0) containing 100 mM L-alanine methyl ester and 200 mM L-glutamine and allowing to react at 25° C. Furthermore, enzyme dissolved in 10 mM acetate buffer (pH 5.0) containing 1 mM EDTA was used for the carboxypeptidase, while enzyme dissolved in 10 mM acetate buffer (pH 5.0) containing 2 mM EDTA, 0.1 M KCl and 5 mM dithiothreitol was used for the thiol endopeptidase.

Experiment [2] concerns enzyme (SP-Sepharose HP fraction) derived from Sphingobacterium sp. strain FERM BP-8124. The class given is biochemical. Set-up: key to Produced peptide (mM): +: those peptides for which production was confirmed but which were unable to be quantified due to the absence of a standard; a trace amount. The conditions noted are these: pH 9.0, 25° C. The method in brief: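 Purified enzyme (SP-Sepharose HP fraction, 0.33 units) reacted with carboxy components (100 mM, as hydrochlorides) and amine components (150 mM) in 100 mM borate buffer pH 9.0 with 10 mM EDTA. Reactions ran 1.5 h at 25 °C to assess peptide and oligopeptide formation.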

The subject of experiment [3] is peptide-producing enzyme (Mono S fraction) from Empedobacter brevis strain FERM BP-8113. The experiment in a line: Enzyme substrate specificity (1)-(10), (13), (14). Type of experiment: biochemical. To be noted: pH 9.0, 25° C., 3 hours. The method in brief: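 Mono S-purified peptide-forming enzyme from Empedobacter brevis FERM BP-8113, given L-amino acid esters (hydrochlorides) or amides as carboxy component with amino acids, C-protected amino acids, methylamine, β-amino acids or peptides as amine component. Dipeptide/oligopeptide product quantified; Tween-80 0.1% added with L-Trp-OMe.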

Experiment [4] has the same test system. The experiment in a line: Production of L-alanyl-L-glutamine from L-alanine methyl ester and L-glutamine with enzyme fraction. The class given is biochemical. To be noted: for L-Ala-L-Gln: L-alanine methyl ester hydrochloride 100 mM, 18° C., 2 hours. As to the method: On the other hand, there was hardly any production of L-Ala-L-Gln observed in an enzyme-non-added lot, and the […] was only about 0.07 mM after reacting for 120 minutes.

Experiment [5] relates to Empedobacter brevis strain FERM BP-8113 microbial cells. The experiment in a line: Production of peptide using microbial cells of Empedobacter brevis. The class given is cell-based. The conditions noted are these: microbial cell suspension 100 g/L mixed 1:1 with 200 mM carboxy component and 400 mM amino acid, pH 9.0, 10 mM EDTA, 18° C., 2 hours. As to the method:
A 50 mL medium (pH 6.2) containing 5 grams (hereinafter, “g”) of glucose, 5 g of ammonium sulfate, 1 g of monopotassium phosphate, 3 g of dipotassium phosphate, 0.5 g of magnesium sulfate, 10 g of yeast extract and 10 g of peptone in 1 liter (hereinafter, “L”) was transferred to a 500 mL Sakaguchi flask and sterilized at 115° C. for 15 minutes. This medium,was then inoculated with one loopful of the culture broth of Empedobacter brevis strain FERM BP-8113 (Depositary institution: National Institute for Advanced Industrial Science and Technology, International Patent Organism Depositary, Address of depositary institution: Chuo Dai-6, 1-1 Higashi 1-Chome, Tsukuba-shi, Ibaraki-ken, Japan, International deposit transfer date: Jul. 8, 2002) that had been cultured at 30° C. for 16 hours in the same medium, followed by shake culturing at 30° C. for 16 hours and 120 strokes/min.

Experiment [6] has as its system peptide-producing enzyme (Mono S fraction) from Empedobacter brevis strain FERM BP-8113. The experiment in a line: Enzyme inhibitors: effect on production of L-alanyl-L-glutamine. The class given is biochemical. The conditions noted are these: for Inhibition of the enzyme (in words): serine enzyme inhibitors at 10 mM.
Experiment [7] shares this test system. The experiment in a line: Enzyme substrate specificity (1)-(10), (13), (14). The class given is biochemical. Further details: key: +: those for which production was confirmed but which were unable to be quantified due to the absence of a standard; a trace amount. The text has this: Ester specificity was examined in the case of using L-amino acid ester for the carboxy component. […] The amounts of L-Ala-L-Gln produced in this reaction are shown in Table 4 (HCl represents hydrochloride in Table 4). Peptide production was examined in the case of using L-alanine methyl ester for the carboxy component and using various L-amino acids for the amine component. […] (The “+” mark indicates those peptides for which production was confirmed but which were unable to be quantified due to the absence of a standard, while “tr” indicates a trace amount.) Peptide production was examined in the case of using various types of L-amino acid methyl esters for the carboxy component and using L-glutamine for the amine component. […] Peptide production was examined in the case of using various L-amino acid methyl esters for the carboxy component and various L-amino acids for the amine component. […] (The “tr” indicates a trace amount.) Furthermore, Tween-80 was added to the reaction system to a final concentration of 0.1% in the case of using L-Trp-OMe. (The “+” mark indicates those peptides for which production was confirmed but which were unable to be quantified due to the absence of a standard.) […] (The “tr” indicates a trace amount.) Peptide production was examined using various L-amino acid amides for the carboxy component, and various L-amino acids for the amine component. […] Peptide production was examined in the case of using various L-alanine methyl esters for the carboxy component and C-protected L-amino acids for the amine component. […] Peptide production was examined in the case of using various amino acid methyl esters for the carboxy component and methylamine for the amine component. […] Peptide production was examined in the case of using β-amino acid ester for the carboxy component or β-amino acid for the amine component. […] (The “tr” indicates a trace amount.) Oligopeptide production was examined in the case of using L-amino acid ester for the carboxy component and peptide for the amine component. […] Substrate specificity was additionally assessed using the same enzyme fraction as that used in Example 5. […] (A “+” mark indicates those for which production was confirmed but which were unable to be quantified due to the absence of a standard, while “tr” indicates a trace amount). Substrate specificity with respect to oligopeptide production was assessed using the same enzyme fraction as Example 26. […] (A “+” mark indicates those for which production was confirmed but which were unable to be quantified due to the absence of a standard, while “tr” indicates a trace amount). It should be noted that hydrochlorides were used for all of the carboxy components.

[8] abbreviates: Table 15-4, amides or methylamine as components, 100 mM / 150 mM, 0.33 units enzyme, 1.5 hours.
[9] abbreviates: 100 mM L-alanine methyl ester hydrochloride, L-amino acid 150 mM.
Where [10] appears, read: L-amino acid amide hydrochloride 100 mM as carboxy component, L-amino acid 150 mM.
The mark [11] stands for this setting: inhibitor at 10 mM, pH 9.0, 25° C., 5 minutes, 100 = absence of enzyme inhibitor.
The mark [12] stands for this setting: oligopeptide production, amount of enzyme 0.2 units, pH 9.0, 25° C., 3 hours.

Read-outs that look alike come from different tables or passages of the source. Non-standard residues stand in square brackets, D forms with d. Residues, ends and D or L forms follow the SMILES beside them. 2Nal = N[C@@H](Cc1ccc2ccccc2c1)C(=O)O; Cha = N[C@@H](CC1CCCCC1)C(=O)O

For the molecule “Chymopapain: thiol endopeptidase described in EP 359399B1, purified enzyme manufactured by Sigma”, in experiment [1], the “L-Ala-L-Gln production rate” value was 0.0100 mM/min and the “Ratio of L-Ala-L-Gln production rate per enzyme unit weight” value (“Ratio … per enzyme unit weight” below) came to 0.0013.
Turning to Ficin, in experiment [1], the “L-Ala-L-Gln production rate” value is 0.0096 mM/min and the “Ratio … per enzyme unit weight” value was found to be 0.0017.
Bromelain: in experiment [1], the “L-Ala-L-Gln production rate” value worked out at 0.0062 mM/min and the “Ratio … per enzyme unit weight” value was determined as 0.0010.
As for `C[C@H](N)C(=O)N[C@@H](CCC(N)=O)C(=O)O` [L-Ala-L-Gln, L-alanyl-L-glutamine] (H-Ala-Gln-OH), the L-alanyl-L-glutamine produced was 73 mM in experiment [2] (10 μl SP-Sepharose HP fraction (about 27 U/ml) in 90 μl with 111 mM L-alanine methyl ester hydrochloride, 222 mM L-glutamine, 120 minutes, enzyme-added lot) and 83 mM in experiment [4] (3 μl enzyme fraction, 100 mM L-alanine methyl ester hydrochloride, 200 mM L-glutamine, pH 9.0, 18° C., enzyme-added lot (FIG. 3)). The “Produced peptide” value was 0.3 mM in experiment [2] (setting [8]); 79.3 mM in experiment [3] (setting [9]); 7.6 mM in experiment [3] (setting [10]); 74.6 mM in experiment [3] (L-amino acid methyl ester hydrochloride 100 mM, 150 mM L-glutamine); 68.0 mM in experiment [5]. Besides, the “L-Ala-L-Gln” value in experiment [4] (L-glutamine 100 mM) is 68.2 mM; in experiment [4] (L-glutamine 110 mM), 72.1 mM; in experiment [4] (L-glutamine 120 mM) it was 73.3 mM; in experiment [4] (L-glutamine 130 mM), 75.1 mM; in experiment [4] (L-glutamine 150 mM) it was 75.5 mM; in experiment [4] (L-glutamine 200 mM), 82.0 mM.
With `O=C(O)CN(CCN(CC(=O)O)CC(=O)O)CC(=O)O` [EDTA, ethylenediaminetetraacetic acid], the “Relative activity of L-Ala-L-Gln production (%)” value (“Relative activity … (%)” below) in experiment [6] (setting [11]) is 96%.
Take `O=S(=O)(F)Cc1ccccc1` [Phenylmethylsulfonyl fluoride]: in experiment [6] (setting [11]), the “Relative activity … (%)” value worked out at 115%. The “Inhibition of the enzyme (in words)” value in experiment [6] is listed as “not inhibited”.
`N[C@@H](CC1CCCCC1)C(=O)N[C@@H](Cc1ccccc1)C(=O)O` [H-CHA-Phe-OH] (H-[Cha]-Phe-OH): the “Produced peptide (mM)” value in experiment [7] (carboxy component 40 mM, amine component 40 mM, 0.1 unit enzyme, 25° C., reaction time 3 hr) was “+”.
`C[C@H](N)C(=O)N[C@@H](Cc1ccc2ccccc2c1)C(=O)O` [H-Ala-2-Nal-OH] (H-Ala-[2Nal]-OH): the “Produced peptide (mM)” value in experiment [7] (carboxy component 20 mM, amine component 20 mM, 0.1 unit enzyme, 25° C., reaction time 3 hr) was “+”.
On to L-Ala-Gly-Gly-L-Phe-L-Met, for which the “Produced peptide (mM)” value in experiment [7] (setting [12]) was “+”.
`CCN1C(=O)C=CC1=O` [N-Ethyl maleimide]: the “Relative activity … (%)” value in experiment [6] (setting [11]) is recorded as 110%.
L-Ala-L-Ala-L-Gln: the “Produced peptide” value in experiment [3] (L-amino acid ester 100 mM, amino acid or peptide amine component 150 mM) is 15.2 mM. This molecule registered a concentration of by-product in experiment [4] (3 μl enzyme fraction, 100 mM L-alanine methyl ester hydrochloride, 200 mM L-glutamine, pH 9.0, 18° C., enzyme-added lot) of 1.3 mM.
Regarding L-Ala-Gly-L-Phe, the “Produced peptide (mM)” value in experiment [7] (oligopeptide production, amount of enzyme 0.1 units, pH 9.0, 25° C., 3 hours) was “+”.
On to L-Ala-L-Phe-L-Met, for which the “Produced peptide (mM)” value in experiment [7] (setting [12]) is listed as “+”.
In the case of `c1cnc2c(c1)ccc1cccnc12` [o-Phenanthroline], the “Relative activity … (%)” value in experiment [6] (setting [11]) came to 96%.
For the molecule `N=C(N)Nc1ccc(C(=O)Oc2ccc([N+](=O)[O-])cc2)cc1` [p-Nitrophenyl-p′-guanidino benzoate, p-nitrophenyl-p′-guanidinobenzoate], the “Relative activity … (%)” value in experiment [6] (setting [11]) is on record as 0.1%. Besides, in experiment [6], the “Inhibition of the enzyme (in words)” value was “inhibited”.
Turning to `CSCC[C@H](NC(=O)[C@H](C)N)C(=O)O` [L-Ala-L-Met] (H-Ala-Met-OH), the “Produced peptide” value in experiment [2] (Table 15-1, carboxy component 100 mM, amine component 150 mM, 0.33 units enzyme, 1.5 hours) is 86.9 mM; in experiment [3] (setting [9]), 83.3 mM; in experiment [3] (setting [10]), 3.4 mM; in experiment [5], 68.3 mM. Besides, the “Produced peptide (mM)” value in experiment [2] (setting [8]) was “tr”.
For `O=C(O)CI` [Monoiodoacetate], the “Relative activity … (%)” value in experiment [6] (pH 9) stood at 101%.

B1: Papain: thiol endopeptidase described in EP 359399B1, purified enzyme manufactured by Sigma (protein, UniProt P00784 134-345, looked up)
Papain: IPEYVDWRQKGAVTPVKNQGSCGSCWAFSAVVTIEGIIKIRTGNLNEYSEQELLDCDRRSYGCNGGYPWSALQLVAQYGIHYRNTYPYEGVQRYCRSREKGPYAAKTDGVRQVQPYNEGALLYSIANQPVSVVLEAAGKDFQLYRGGIFVGPCGNKVDHAVAAVGYGPNYILIKNSWGTGWGENGYIRIKRGTGNSYGVCGLYTSSFYPVKN
On to B1, for which, in experiment [1], the “L-Ala-L-Gln production rate” value came to 0.0106 mM/min and the “Ratio … per enzyme unit weight” value was determined as 0.0021.

B2: Carboxypeptidase Y: known enzyme described in EP 278787A1, purified enzyme manufactured by Sigma (protein, UniProt P00729 112-532, looked up)
Carboxypeptidase Y: KIKDPKILGIDPNVTQYTGYLDVEDEDKHFFFWTFESRNDPAKDPVILWLNGGPGCSSLTGLFFELGPSSIGPDLKPIGNPYSWNSNATVIFLDQPVNVGFSYSGSSGVSNTVAAGKDVYNFLELFFDQFPEYVNKGQDFHIAGESYAGHYIPVFASEILSHKDRNFNLTSVLIGNGLTDPLTQYNYYEPMACGEGGEPSVLPSEECSAMEDSLERCLGLIESCYDSQSVWSCVPATIYCNNAQLAPYQRTGRNVYDIRKDCEGGNLCYPTLQDIDDYLNQDYVKEAVGAEVDHYESCNFDINRNFLFAGDWMKPYHTAVTDLLNQDLPILVYAGDKDFICNWLGNKAWTDVLPWKYDEEFASQKVRNWTASITDEVAGEVKSYKHFTYLRVFNGGHMVPFDVPENALSMVNEWIHGGFSL
Regarding B2, in experiment [1], the “L-Ala-L-Gln production rate” value came to 0.0257 mM/min and the “Ratio … per enzyme unit weight” value was found to be 0.0191.
